Legend:
microtubule assembly = experiment: In vitro microtubule assembly kinetics; format: biochemical; conditions: rank order
Description: (A) In vitro Microtubule Assembly Kinetics Studies
The microtubule assembly study was conducted using both 2' and 7-derivatives according to the in vitro procedures disclosed, for example, in Mellado et al., Biochemical and Biophysical Research Communications, Vol. 124, No. 2 (1984), pp. 329-336; Magri et al., J. Org. Chem., 51, 797-802 (1986); and Parness et al., Biochemical and Biophysical Research Communications, Vol. 105, No. 3, pp. 1082-1091 (1982).

B-16 melanoma cells = experiment: In vitro B16 melanoma cell proliferation; format: cell-based; conditions: rank order
Description: These studies were conducted according to standard procedures as described in Donoso and Himes, Cancer Biochem. Biophysics, vol. 7, (1984), p. 133.

[1] = system: human mammary carcinoma MX-1 xenograft; experiment: Subrenal capsule human mammary carcinoma MX-1 xenograft in mice; conditions: for ANML BODY WT DIFF (test minus control) / TEST BODY WT CHG / # OF ANMLS ALIVE CALC/TOTAL / Average tumor WEIGHT CHANGE (DELTA) / Average tumor weight, FINAL: Q4D; for ANML BODY WT DIFF (test minus control) / TEST BODY WT CHG: Day 1 to 11; for # OF ANMLS ALIVE CALC/TOTAL / Average tumor WEIGHT CHANGE (DELTA) / Average tumor weight, FINAL / % T/C: Day 11; for % T/C: Q4D Days 1, 5, 9
Excerpt: The procedures followed are those described at pages 23-24 of NIH Publication No. 84-2635, In Vivo Cancer Model (February 1984).
In the procedure, test groups of mice (6 mice per test group) and control groups of 12 mice per group are utilized. A tumor fragment (human mammary carcinoma MX-1 xenograft), is implanted under the membranous covering of the kidney of each mouse.
Day 0: Anesthetize animals. Record body weight (Weigh Day 1). Implant tumor, measure and record. Randomize animals after they recover from the anesthetic. Run bacterial cultures. Determine solubilities of test agent. Record deaths daily.
Day 1: Check cultures. Discard experiment if contaminated. Prepare test materials. Initiate test agent injections (in the nape of the neck) based on individual body weight. Treatment is Q4D on Days 1, 5, and 9. Prepare test agent fresh on each injection day and administer based on individual body weight for that day.
Days 5 and 9: Prepare test agent fresh on each injection day and administer based on individual body weight for that day.
Day 11: End and evaluate experiment. Record body weights (Weigh Day 2). Measure tumor in OMU's (Ocular Micrometer Unit--10 OMU's=1 mm) and record.
The parameter measured is mean tumor weight change (delta) based on length and width measurements in millimeters. Mean animal body weights are computed for Day 1 and Day 11, compute T/C for all test groups with>65% survivors on Day 11. An excessive body weight change difference (test minus control) may also be used in evaluating toxicity. The dimensions are measured and recorded in Ocular Micrometer Units (OMU). A computer is utilized for the following:
(1) Converts OMU's to millimeters (mm).
(2) Calculates tumor weights (mgs) from tumor dimensions (mm×mm) following the formula for the volume of a prolate ellipsoid: [formula] (3) Calculates the change (delta) in mean tumor weight for each group of mice:
Change in Mean Tumor Weight=Mean Tumor WeightFINAL -Mean Tumor WeightINITIAL.
(4) Calculates the change (delta) in mean tumor weight for test (T) and control (C) groups.
(5) Calculates T/C% for all test groups with>65% survivors on Final Evaluation Day: [formula]

[2] = in words; cited from earlier work
microtubules = conditions: in vitro / cells, in words; cited from earlier work
tumors = conditions: in words; cited from earlier work

CC(=O)O[C@H]1C(=O)[C@@]2(C)[C@H]([C@H](OC(=O)c3ccccc3)[C@]3(O)C[C@H](OC(=O)[C@H](O)[C@@H](NC(=O)c4ccccc4)c4ccccc4)C(C)=C1C3(C)C)[C@]1(OC(C)=O)CO[C@@H]1C[C@@H]2O [Taxol]
Ability to assemble microtubules (order) (microtubule assembly): taxol >7-(N,N-dimethylglycyl)taxol(11)>2'(N,N-diethylaminopropionyl)taxol(8)>2'(N,N-dimethylglycyl)taxol(2) | Order of effectiveness in B-16 melanoma cell proliferation study (B-16 melanoma cells): taxol>2'-(N,N-dimethylglycyl)taxol>2'-(N,N-diethylaminopropionyl)taxol>7-(N,N-dimethylglycyl)taxol | ANML BODY WT DIFF (test minus control) ([1]; Table 1, 4.45 mg/kg): .5 | TEST BODY WT CHG ([1]; Table 1, 4.45 mg/kg): -1.2 | # OF ANMLS ALIVE CALC/TOTAL ([1]; Table 1, 4.45 mg/kg): 5/5 | Average tumor WEIGHT CHANGE (DELTA) ([1]; Table 1, 4.45 mg/kg): -.79 MGS | Average tumor weight, FINAL ([1]; Table 1, 4.45 mg/kg): .00 MGS | ANML BODY WT DIFF (test minus control) ([1]; Table 1, 6.67 mg/kg): .2 | TEST BODY WT CHG ([1]; Table 1, 6.67 mg/kg): -1.5 | # OF ANMLS ALIVE CALC/TOTAL ([1]; Table 1, 6.67 mg/kg): 5/5 | Average tumor WEIGHT CHANGE (DELTA) ([1]; Table 1, 6.67 mg/kg): -.74 MGS | Average tumor weight, FINAL ([1]; Table 1, 6.67 mg/kg): .00 MGS | % T/C ([1]; Table 1, 10.00 mg/kg): -84% | ANML BODY WT DIFF (test minus control) ([1]; Table 1, 10.00 mg/kg): -.3 | TEST BODY WT CHG ([1]; Table 1, 10.00 mg/kg): -2.0 | # OF ANMLS ALIVE CALC/TOTAL ([1]; Table 1, 10.00 mg/kg): 6/6 | Average tumor WEIGHT CHANGE (DELTA) ([1]; Table 1, 10.00 mg/kg): -.49 MGS | Average tumor weight, FINAL ([1]; Table 1, 10.00 mg/kg): .09 MGS | ANML BODY WT DIFF (test minus control) ([1]; Table 1, 15.00 mg/kg): -2.5 | TEST BODY WT CHG ([1]; Table 1, 15.00 mg/kg): -4.2 | # OF ANMLS ALIVE CALC/TOTAL ([1]; Table 1, 15.00 mg/kg): 6/6 | Average tumor WEIGHT CHANGE (DELTA) ([1]; Table 1, 15.00 mg/kg): -.81 MGS | Average tumor weight, FINAL ([1]; Table 1, 15.00 mg/kg): .00 MGS | % T/C ([1]; Table 1, 22.40 mg/kg): TOX | ANML BODY WT DIFF (test minus control) ([1]; Table 1, 22.40 mg/kg): -.9 | TEST BODY WT CHG ([1]; Table 1, 22.40 mg/kg): -2.6 | # OF ANMLS ALIVE CALC/TOTAL ([1]; Table 1, 22.40 mg/kg): 3/6 | Average tumor weight, FINAL ([1]; Table 1, 22.40 mg/kg): .00 MGS | % T/C ([1]; Table 2, 1.88 mg/kg): 5% | ANML BODY WT DIFF (test minus control) ([1]; Table 2, 1.88 mg/kg): 3.0 | TEST BODY WT CHG ([1]; Table 2, 1.88 mg/kg): -1.0 | # OF ANMLS ALIVE CALC/TOTAL ([1]; Table 2, 1.88 mg/kg): 4/5 | Average tumor WEIGHT CHANGE (DELTA) ([1]; Table 2, 1.88 mg/kg): .71 MGS | Average tumor weight, FINAL ([1]; Table 2, 1.88 mg/kg): 1.51 MGS | ANML BODY WT DIFF (test minus control) ([1]; Table 2, 3.75 mg/kg): 1.1 | TEST BODY WT CHG ([1]; Table 2, 3.75 mg/kg): -2.9 | # OF ANMLS ALIVE CALC/TOTAL ([1]; Table 2, 3.75 mg/kg): 4/5 | Average tumor WEIGHT CHANGE (DELTA) ([1]; Table 2, 3.75 mg/kg): -.71 MGS | Average tumor weight, FINAL ([1]; Table 2, 3.75 mg/kg): .00 MGS | % T/C ([1]; Table 2, 7.50 mg/kg): TOX | ANML BODY WT DIFF (test minus control) ([1]; Table 2, 7.50 mg/kg): 2.3 | TEST BODY WT CHG ([1]; Table 2, 7.50 mg/kg): -1.7 | # OF ANMLS ALIVE CALC/TOTAL ([1]; Table 2, 7.50 mg/kg): 3/5 | Average tumor weight, FINAL ([1]; Table 2, 7.50 mg/kg): .00 MGS | % T/C ([1]; Table 2, 15.00 mg/kg): TOX | # OF ANMLS ALIVE CALC/TOTAL ([1]; Table 2, 15.00 mg/kg): 0/5 | Water solubility [2]: only very slightly soluble in water | Effect on microtubules (microtubules): promotes the assembly of microtubules but inhibits their disassembly | Antitumor activity (tumors): potent antitumor activity against a wide variety of tumors
